Experimental data published in US8414989B2, “Cyclodextrin compositions, articles, and methods” (Cellresin Technologies, LLC, priority 2011, dated 2013).

Tests used:
[1] = Example 10: 1-MCP headspace release from inkjet printed multilayer and monolayer films; type: physicochemical; details: 250 mL bottle, 100 μL water
From the text: The ink containing 4 wt-% 1-MCP/c/α-CD from Example 9 was loaded back into the previously emptied cartridge. After refilling the cartridge, it was installed into a HP Inkjet 1600C printer (obtained from the Hewlett-Packard Company of Palo Alto, Calif.) and the calibration or head cleaning function was run. A medium density, black cross-hatch pattern obtained from Microsoft EXCEL software program 2003 (obtained from the Microsoft Corporation of Redman, Wash.) was used to format the entire printable page. The EXCEL pattern image was printed onto 3M, CG3460 Transparency Film (polyester film 120 microns thick for HP inkjet printers; obtained from the 3M Company of St. Paul, Minn.) using the dried, milled ink containing 4 wt-% 1-MCP/c/α-CD of Example 9. Immediately after printing, the printed side of the transparency film was overlaid with a 25 μm polyethylene film and then passed by hand about 10 cm beneath a medium pressure mercury arc lamp operating at 79 watts per cm for 3 seconds exposure to the lamp, with the polyethylene side facing the lamp. The methodology simulates a multilayer flexible-package where the inner surface of an outer, transparent, layer of the multilayer flexible material was printed (referred to as reverse printing). The printed surface was then laminated to other layers. The outside layer itself serves to protect the ink from abuse.
The following technique was designed to measure the permeability of 1-MCP, which was released from the reverse inkjet printed 3M Transparency Film, through PE film as the “inner layer” of a multilayer produce package. In a multilayer produce package, as the humidity rises inside the package by respiration of fresh agricultural products, the water vapor reaches a concentration that allows it to diffuse to the outside of the package. In this example, water also diffuses through the ink layer containing 1-MCP/c/α-CD. The reverse printed ink on the PET film releases 1-MCP which diffuses through the PE film into the interior of package (headspace) under a gradient of low 1-MCP concentration inside the bottle headspace and high 1-MCP concentration within the multilayer structure.
Using a paper cutter, a 5.5 cm by 16 cm rectangle (88 cm^2) was cut from the multilayer structure of the printed, cured ink on the PET sheet overlaid with PE. The rectangle was placed in a 250 mL serum bottle. The bottle was then sealed with a TEFLON® faced silicone septa. Then 100 μL of deionized water was injected into the bottle. […] Bottle headspace was analyzed at 0.17, 0.5, 1, 2, 4, and 24 hours after the injection of water using the technique employed in Example 3. The results in Table 8 illustrate 1-MCP headspace concentration as a function of time for the “multilayer” film.
A second piece of PET transparency film was printed as in Example 9 except that the transparency film was not covered with PE film; the printed ImTech UVBLK Series 912 ink was cured on the PET film surface using a medium pressure mercury arc lamp operating at 79 watts per cm in the same manner as for Example 9. Then, using a paper cutter, a 1.2 cm by 16 cm rectangle (19 cm^2) was cut from the sheet. The rectangle was placed in 250 mL serum bottle. The bottle was then sealed with a TEFLON® faced silicone septa. Then 100 μL of deionized water was injected into the bottle. […] Bottle headspace was analyzed at 0.17, 0.5, 1, 2, 4, and 24 hours after the injection of water using the technique employed in Example 3. The headspace concentration of 1-MCP as a function of time is also reported in Table 9 for the “monolayer” film.

[2] = Example 4: 1-MCP headspace release versus coated surface area and time; type: physicochemical; details: 4.0 wt-% 1-MCP/c/α-CD coating, 20 μL water
Procedure: A 4.0 wt-% 1-MCP/c/α-CD blend was made according to the technique of Example 3. A rubber ink roller was used to deliver a coating having a nominal thickness of 0.3 μm to a 20 cm by 20 cm polyethylene extrusion coated paper sheet using the technique of Example 2. The coated sheet was cured according to the procedure of Example 2.
Using a razor blade, 26 cm^2, 52 cm^2, and 78 cm^2 samples were cut from the coated portion of the sheet. Each sample was placed in a 250 mL serum bottle. The bottles were sealed with TEFLON® faced silicone septa. Then 20 μL of deionized water was injected into each bottle. […] Bottle headspace analysis was conducted according to the technique of Example 3 at 0.17 hours, 0.5 hours, 1 hour, 2 hours, 4 hours and 24 hours after the injection of water.

## CC1=CC1 [1-MCP, 1-methylcyclopropene]
[1]; 19 cm^2 Monolayer (printed PET, no PE film), 0.17 hours
  Headspace concentration of 1-MCP: 0.50 ppm (v/v)
[1]; 19 cm^2 Monolayer (printed PET, no PE film), 0.5 hours
  Headspace concentration of 1-MCP: 0.52 ppm (v/v)
[1]; 19 cm^2 Monolayer (printed PET, no PE film), 1 hour
  Headspace concentration of 1-MCP: 0.50 ppm (v/v)
[1]; 19 cm^2 Monolayer (printed PET, no PE film), 2 hours
  Headspace concentration of 1-MCP: 0.51 ppm (v/v)
[1]; 19 cm^2 Monolayer (printed PET, no PE film), 4 hours
  Headspace concentration of 1-MCP: 0.52 ppm (v/v)
[1]; 19 cm^2 Monolayer (printed PET, no PE film), 24 hours
  Headspace concentration of 1-MCP: 0.49 ppm (v/v)
[1]; 88 cm^2 Multilayer (inkjet printed PET overlaid with 25 μm PE), 0.17 hours
  Headspace concentration of 1-MCP: 0.25 ppm (v/v)
[1]; 88 cm^2 Multilayer (inkjet printed PET overlaid with 25 μm PE), 0.5 hours
  Headspace concentration of 1-MCP: 0.46 ppm (v/v)
[1]; 88 cm^2 Multilayer (inkjet printed PET overlaid with 25 μm PE), 1 hour
  Headspace concentration of 1-MCP: 1.1 ppm (v/v)
[1]; 88 cm^2 Multilayer (inkjet printed PET overlaid with 25 μm PE), 2 hours
  Headspace concentration of 1-MCP: 1.5 ppm (v/v)
[1]; 88 cm^2 Multilayer (inkjet printed PET overlaid with 25 μm PE), 4 hours
  Headspace concentration of 1-MCP: 3.2 ppm (v/v)
[1]; 88 cm^2 Multilayer (inkjet printed PET overlaid with 25 μm PE), 24 hours
  Headspace concentration of 1-MCP: 8.3 ppm (v/v)
[2]; 26 cm^2, 250 mL bottle, 0.17 hrs
  Headspace concentration of 1-MCP: 0.25 ppm -v/v
[2]; 26 cm^2, 250 mL bottle, 0.5 hrs
  Headspace concentration of 1-MCP: 1.5 ppm -v/v
[2]; 26 cm^2, 250 mL bottle, 1 hr
  Headspace concentration of 1-MCP: 2.4 ppm -v/v
[2]; 26 cm^2, 250 mL bottle, 2 hrs
  Headspace concentration of 1-MCP: 3.7 ppm -v/v
[2]; 26 cm^2, 250 mL bottle, 4 hrs
  Headspace concentration of 1-MCP: 5.8 ppm -v/v
[2]; 26 cm^2, 250 mL bottle, 24 hrs
  Headspace concentration of 1-MCP: 9.6 ppm -v/v
[2]; 52 cm^2, 250 mL bottle, 0.17 hrs
  Headspace concentration of 1-MCP: 0.66 ppm - v/v
[2]; 52 cm^2, 250 mL bottle, 0.5 hrs
  Headspace concentration of 1-MCP: 2.2 ppm - v/v
[2]; 52 cm^2, 250 mL bottle, 1 hr
  Headspace concentration of 1-MCP: 4.2 ppm - v/v
[2]; 52 cm^2, 250 mL bottle, 2 hrs
  Headspace concentration of 1-MCP: 7.0 ppm - v/v
[2]; 52 cm^2, 250 mL bottle, 4 hrs
  Headspace concentration of 1-MCP: 9.9 ppm - v/v
[2]; 52 cm^2, 250 mL bottle, 24 hrs
  Headspace concentration of 1-MCP: 16.1 ppm - v/v
[2]; 78 cm^2, 250 mL bottle, 0.17 hrs
  Headspace concentration of 1-MCP: 1.7 ppm - v/v
[2]; 78 cm^2, 250 mL bottle, 0.5 hrs
  Headspace concentration of 1-MCP: 3.4 ppm - v/v
[2]; 78 cm^2, 250 mL bottle, 1 hr
  Headspace concentration of 1-MCP: 5.2 ppm - v/v
[2]; 78 cm^2, 250 mL bottle, 2 hrs
  Headspace concentration of 1-MCP: 7.9 ppm - v/v
[2]; 78 cm^2, 250 mL bottle, 4 hrs
  Headspace concentration of 1-MCP: 12.4 ppm - v/v
[2]; 78 cm^2, 250 mL bottle, 24 hrs
  Headspace concentration of 1-MCP: 20.0 ppm - v/v
